Broadly, the IC50 is the concentration at which inhibition is half-maximal.

In one assay the target is PI4KIIIα (Homo sapiens, UniProt P42356). As to the kind of experiment: Phosphatidyl inositol kinase inhibition assay (ADP-Glo Kinase Assay). It counts as biochemical. On the procedure:
(§1) Phosphatidyl Inositol Kinase Inhibition Assay Inhibition of PI4 kinases was studied using the ADP-Glo™ Kinase Assay which is a luminescent kinase assay that measures ADP formed from a kinase reaction; ADP is converted into ATP, which is converted into light by Ultra-Glo™ Luciferase. The assay is performed in two steps; first, after the kinase reaction, an equal volume of ADP-Glo™ Reagent is added to terminate the kinase reaction and deplete the remaining ATP. In the second step, the Kinase Detection Reagent is added, which simultaneously converts ADP to ATP and allows the newly synthesized ATP to be measured using a coupled luciferase/luciferin reaction. The luminescent signal produced is proportional to the activity of the kinase.

The target of another assay is PI4KIIIβ (Homo sapiens, UniProt Q9UBF8). The assay is described as above. It counts as biochemical. The procedure: as §1
PI4KIIIβ, sequence (Q9UBF8 whole entry): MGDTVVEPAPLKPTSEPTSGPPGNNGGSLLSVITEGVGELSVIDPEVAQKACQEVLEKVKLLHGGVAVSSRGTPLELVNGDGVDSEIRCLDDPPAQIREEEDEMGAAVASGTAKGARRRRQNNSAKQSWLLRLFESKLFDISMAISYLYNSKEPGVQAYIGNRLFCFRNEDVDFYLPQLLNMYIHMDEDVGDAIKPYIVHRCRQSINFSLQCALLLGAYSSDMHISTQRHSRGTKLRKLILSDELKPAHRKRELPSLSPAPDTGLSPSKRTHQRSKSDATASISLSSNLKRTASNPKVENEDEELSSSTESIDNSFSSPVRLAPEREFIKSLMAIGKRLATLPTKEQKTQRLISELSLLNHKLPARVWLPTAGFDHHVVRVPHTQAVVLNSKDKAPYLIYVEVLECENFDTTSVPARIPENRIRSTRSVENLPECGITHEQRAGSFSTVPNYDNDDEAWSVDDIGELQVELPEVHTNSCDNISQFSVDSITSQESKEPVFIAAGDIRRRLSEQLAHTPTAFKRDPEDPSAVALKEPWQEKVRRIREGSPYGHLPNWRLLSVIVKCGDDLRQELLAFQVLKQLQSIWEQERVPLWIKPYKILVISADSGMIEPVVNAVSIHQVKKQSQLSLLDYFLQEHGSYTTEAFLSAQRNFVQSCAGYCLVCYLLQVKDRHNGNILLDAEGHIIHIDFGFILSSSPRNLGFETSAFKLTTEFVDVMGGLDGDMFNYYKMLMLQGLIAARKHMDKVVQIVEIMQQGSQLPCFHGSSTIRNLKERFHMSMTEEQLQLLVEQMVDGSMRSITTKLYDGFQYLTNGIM
The target in a further assay is PI3Kα (Homo sapiens, UniProt P42336). As to the kind of experiment: Phosphatidyl inositol kinase inhibition assay (HTRF). Format: biochemical. The source says: (§2) Phosphatidyl Inositol Kinase Inhibition Assay
PI3Kα, sequence (P42336 whole entry, species assumed): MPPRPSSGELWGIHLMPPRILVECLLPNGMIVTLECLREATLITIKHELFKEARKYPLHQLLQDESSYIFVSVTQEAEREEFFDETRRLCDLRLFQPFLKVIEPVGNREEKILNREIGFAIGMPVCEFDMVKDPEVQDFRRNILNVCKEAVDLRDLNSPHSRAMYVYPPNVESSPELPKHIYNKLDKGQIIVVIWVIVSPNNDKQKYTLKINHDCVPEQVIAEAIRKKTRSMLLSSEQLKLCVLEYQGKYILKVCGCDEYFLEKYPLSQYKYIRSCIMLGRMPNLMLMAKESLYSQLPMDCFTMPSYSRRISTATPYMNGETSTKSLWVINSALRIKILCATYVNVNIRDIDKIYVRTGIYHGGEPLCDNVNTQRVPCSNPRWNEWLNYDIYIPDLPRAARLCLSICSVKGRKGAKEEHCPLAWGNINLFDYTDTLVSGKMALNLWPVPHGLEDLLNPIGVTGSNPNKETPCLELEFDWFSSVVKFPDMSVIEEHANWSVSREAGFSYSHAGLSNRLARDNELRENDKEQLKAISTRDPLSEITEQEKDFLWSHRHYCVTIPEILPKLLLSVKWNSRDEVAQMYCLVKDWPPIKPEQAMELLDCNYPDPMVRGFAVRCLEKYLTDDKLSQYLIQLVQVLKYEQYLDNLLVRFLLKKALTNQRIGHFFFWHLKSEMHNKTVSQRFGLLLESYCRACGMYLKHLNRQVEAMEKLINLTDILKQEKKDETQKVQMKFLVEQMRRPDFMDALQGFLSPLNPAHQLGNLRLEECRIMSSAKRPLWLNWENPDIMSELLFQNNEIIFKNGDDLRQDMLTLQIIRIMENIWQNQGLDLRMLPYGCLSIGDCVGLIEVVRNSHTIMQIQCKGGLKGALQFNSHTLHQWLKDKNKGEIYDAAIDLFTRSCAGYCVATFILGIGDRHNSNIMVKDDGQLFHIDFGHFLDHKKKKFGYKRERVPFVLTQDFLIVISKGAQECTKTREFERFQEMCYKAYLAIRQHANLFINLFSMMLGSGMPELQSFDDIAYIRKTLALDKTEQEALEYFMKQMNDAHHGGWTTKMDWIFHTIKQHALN
PI3Kα, sequence (P27986 whole entry partner, species assumed): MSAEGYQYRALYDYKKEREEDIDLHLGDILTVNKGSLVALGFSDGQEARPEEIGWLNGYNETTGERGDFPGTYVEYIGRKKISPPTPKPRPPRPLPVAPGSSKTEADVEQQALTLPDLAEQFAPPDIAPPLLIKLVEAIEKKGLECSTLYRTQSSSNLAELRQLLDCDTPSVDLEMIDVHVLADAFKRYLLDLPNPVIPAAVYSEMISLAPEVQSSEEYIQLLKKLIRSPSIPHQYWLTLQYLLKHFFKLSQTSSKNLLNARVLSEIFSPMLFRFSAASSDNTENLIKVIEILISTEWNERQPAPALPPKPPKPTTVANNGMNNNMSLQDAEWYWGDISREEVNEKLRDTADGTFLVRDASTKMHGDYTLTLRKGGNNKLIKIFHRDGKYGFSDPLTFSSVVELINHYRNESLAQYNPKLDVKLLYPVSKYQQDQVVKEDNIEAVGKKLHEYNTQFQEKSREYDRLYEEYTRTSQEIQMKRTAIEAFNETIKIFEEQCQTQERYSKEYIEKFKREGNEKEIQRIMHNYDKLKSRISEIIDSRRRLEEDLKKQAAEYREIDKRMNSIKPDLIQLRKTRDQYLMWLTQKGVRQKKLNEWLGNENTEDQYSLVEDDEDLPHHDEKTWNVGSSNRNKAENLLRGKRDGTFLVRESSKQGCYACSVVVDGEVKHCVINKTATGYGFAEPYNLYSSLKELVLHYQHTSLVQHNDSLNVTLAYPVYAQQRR
(§3) Inhibition of PI3 kinases was studied using the HTRF (homogeneous time-resolved fluorescence) assay which is a universal method for identifying and characterizing the phosphotransferase activity induced by any ATP/ADP dependent target. The formation of ADP is detected by a specific monoclonal antibody labeled with Eu^3+ cryptate, and directly correlates with the amount of phosphorylated substrate in kinase assays

In a further assay the target is PI3Kβ (Homo sapiens, UniProt P42338). The description is as above. Format: biochemical.
Description: as §2, §3

In a further assay the test system is Enterovirus 30. As to the kind of experiment: Antiviral CPE assay in mammalian cell culture. Format: cell-based. To be noted: Enterovirus, read-out: inhibition capacity (IC50) EV30.
In another assay the test system is Enterovirus 68. Description: Antiviral CPE assay in mammalian cell culture. To be noted: Enterovirus D, EV68, read-out: inhibition capacity (IC50) EV68. Format: cell-based.
Another assay relates to Enterovirus 71. As to the kind of experiment: Antiviral CPE assay in mammalian cell culture. It counts as cell-based. As to conditions: Enterovirus A, EV71, prevention of viral CPE, read-out: inhibition capacity (IC50) EV71.
The test system of a further assay is coxsackie B1 virus. Description: Antiviral CPE assay in mammalian cell culture. It counts as cell-based. As to conditions: read-out: inhibition capacity (IC50) Bl.
Another assay concerns coxsackie B2 virus. Description: Antiviral CPE assay in mammalian cell culture. Format: cell-based. To be noted: read-out: inhibition capacity (IC50) B2.
In another assay the test system is coxsackie B3 virus. As to the kind of experiment: Antiviral CPE assay in mammalian cell culture. As to conditions: Enterovirus B, B3, read-out: inhibition capacity (IC50) B3. It counts as cell-based.
For another assay, the system named is coxsackie B 4 virus. Description: Antiviral CPE assay in mammalian cell culture. It counts as cell-based. To be noted: Enterovirus B, B4, read-out: inhibition capacity (IC50) B4.
The subject of another assay is coxsackie B5virus. Description: Antiviral CPE assay in mammalian cell culture. It counts as cell-based. To be noted: read-out: inhibition capacity (IC50) B5.
The next assay concerns polio virus Sabin 1. As to the kind of experiment: organism not typed. Format: cell-based. As to conditions: read-out: inhibition capacity (IC50) Polio 1.
The next assay concerns Enterovirus 6. As to the kind of experiment: Antiviral CPE assay in mammalian cell culture. Format: cell-based. To be noted: prevention of viral CPE, read-out: inhibition capacity (IC50) EV6.

SMILES strings stand for the structures.

PI4KIIIα, sequence (P42356 whole entry): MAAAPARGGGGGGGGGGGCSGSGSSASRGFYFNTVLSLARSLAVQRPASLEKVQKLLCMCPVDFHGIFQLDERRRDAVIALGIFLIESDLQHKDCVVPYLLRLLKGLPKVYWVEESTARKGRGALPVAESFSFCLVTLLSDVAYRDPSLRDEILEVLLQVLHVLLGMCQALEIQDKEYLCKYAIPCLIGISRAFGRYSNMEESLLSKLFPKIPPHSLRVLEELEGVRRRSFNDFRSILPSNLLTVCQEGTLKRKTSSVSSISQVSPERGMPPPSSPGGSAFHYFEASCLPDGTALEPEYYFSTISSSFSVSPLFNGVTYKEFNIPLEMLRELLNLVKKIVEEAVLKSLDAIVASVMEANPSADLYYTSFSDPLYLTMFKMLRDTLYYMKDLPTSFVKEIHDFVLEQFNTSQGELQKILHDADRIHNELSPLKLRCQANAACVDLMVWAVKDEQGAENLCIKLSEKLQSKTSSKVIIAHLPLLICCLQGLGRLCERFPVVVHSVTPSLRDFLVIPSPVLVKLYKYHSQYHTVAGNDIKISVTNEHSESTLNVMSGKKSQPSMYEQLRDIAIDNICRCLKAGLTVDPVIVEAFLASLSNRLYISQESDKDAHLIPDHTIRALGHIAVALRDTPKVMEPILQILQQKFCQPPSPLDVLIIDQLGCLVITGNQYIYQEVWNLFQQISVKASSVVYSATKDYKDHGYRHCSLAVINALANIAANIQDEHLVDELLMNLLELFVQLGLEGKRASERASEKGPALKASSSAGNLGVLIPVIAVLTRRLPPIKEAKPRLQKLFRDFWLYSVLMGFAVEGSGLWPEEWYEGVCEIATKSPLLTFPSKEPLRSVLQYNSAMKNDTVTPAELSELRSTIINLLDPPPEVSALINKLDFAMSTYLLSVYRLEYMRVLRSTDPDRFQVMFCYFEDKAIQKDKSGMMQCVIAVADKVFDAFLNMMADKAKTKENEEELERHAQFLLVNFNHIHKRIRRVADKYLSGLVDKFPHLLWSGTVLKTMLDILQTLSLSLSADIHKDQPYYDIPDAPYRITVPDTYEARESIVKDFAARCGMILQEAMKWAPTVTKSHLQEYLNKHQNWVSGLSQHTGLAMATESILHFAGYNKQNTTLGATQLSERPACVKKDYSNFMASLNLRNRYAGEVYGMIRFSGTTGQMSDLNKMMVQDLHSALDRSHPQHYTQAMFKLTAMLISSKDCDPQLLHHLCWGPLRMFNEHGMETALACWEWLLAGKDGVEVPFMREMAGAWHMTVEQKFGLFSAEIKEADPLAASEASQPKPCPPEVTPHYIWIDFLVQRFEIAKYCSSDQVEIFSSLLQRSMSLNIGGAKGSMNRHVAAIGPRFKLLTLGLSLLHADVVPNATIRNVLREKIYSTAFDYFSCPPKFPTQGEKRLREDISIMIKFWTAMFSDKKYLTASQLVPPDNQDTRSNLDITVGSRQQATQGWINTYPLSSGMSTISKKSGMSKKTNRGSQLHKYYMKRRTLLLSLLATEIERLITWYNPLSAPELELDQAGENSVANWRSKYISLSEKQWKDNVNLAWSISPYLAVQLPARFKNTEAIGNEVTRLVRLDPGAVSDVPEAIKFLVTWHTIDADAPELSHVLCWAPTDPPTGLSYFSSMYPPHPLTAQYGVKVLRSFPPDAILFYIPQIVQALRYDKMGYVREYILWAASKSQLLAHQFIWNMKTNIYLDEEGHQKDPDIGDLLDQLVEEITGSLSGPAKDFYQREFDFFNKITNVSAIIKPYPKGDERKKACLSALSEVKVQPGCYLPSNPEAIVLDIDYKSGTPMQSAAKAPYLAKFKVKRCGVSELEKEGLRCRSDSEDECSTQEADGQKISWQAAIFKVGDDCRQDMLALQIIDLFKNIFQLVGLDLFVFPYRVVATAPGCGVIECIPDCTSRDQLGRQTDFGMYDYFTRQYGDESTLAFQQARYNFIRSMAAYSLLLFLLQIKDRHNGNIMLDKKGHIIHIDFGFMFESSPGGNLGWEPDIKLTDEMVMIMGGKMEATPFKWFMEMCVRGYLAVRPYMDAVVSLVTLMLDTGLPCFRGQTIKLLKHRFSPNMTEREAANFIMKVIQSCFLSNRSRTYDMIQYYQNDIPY

Turning to `COc1ccc(-c2c(C)nn3c(NCc4ccc(S(N)(=O)=O)cc4)nc(C)nc23)cc1OC` [Example 14, 4-[[[8-(3,4-dimethoxyphenyl)-2,7-dimethyl-pyrazolo[1,5-a][1,3,5]triazin-4-yl]amino]methyl]benzenesulfonamide], the IC50 is 1300 nM against PI4KIIIα; 2.1 nM against PI4KIIIβ; > 10000 nM against PI3Kα; > 10000 nM against PI3Kβ; < 10 nM in the assay with Enterovirus 30; < 10 nM with Enterovirus 68. Also, the IC50 with Enterovirus 71 is < 10 nM; in the assay with coxsackie B1 virus, < 100 nM; in the assay on coxsackie B2 virus, < 100 nM; in the assay on coxsackie B3 virus it was < 100 nM; with coxsackie B 4 virus it was < 100 nM; in the assay with coxsackie B5virus, < 10 nM. The IC50 in the assay with polio virus Sabin 1 is < 10 nM.

On to `COc1ccc(-c2c(C)nn3c(NCc4ccncc4)nc(C)nc23)cc1OC` [Example 6, 8-(3,4-dimethoxyphenyl)-2,7-dimethyl-N-(4-pyridylmethyl)pyrazolo[1,5-a][1,3,5]triazin-4-amine], for which the IC50 was 3200 nM against PI4KIIIα; 1.3 nM on PI4KIIIβ; 7300 nM at PI3Kα; > 10000 nM at PI3Kβ; < 10 nM with Enterovirus 6; < 100 nM with Enterovirus 30. In addition, the IC50 with Enterovirus 68, with Enterovirus 71, in the assay on coxsackie B1 virus, in the assay on coxsackie B2 virus, in the assay on coxsackie B3 virus and with coxsackie B 4 virus was < 10 nM throughout. Moreover, the IC50 with coxsackie B5virus and in the assay with polio virus Sabin 1 was < 10 nM each time.

Consider `COc1ccc(-c2c(C)nn3c(NCc4cccc(S(C)(=O)=O)c4)nc(C)nc23)cc1OC` [Example 11, 8-(3,4-dimethoxyphenyl)-2,7-dimethyl-N-[(3-methylsulfonylphenyl)methyl]pyrazolo[1,5-a][1,3,5]triazin-4-amine], for which the IC50 in the assay with Enterovirus 6 was < 100 nM; with Enterovirus 30, < 10 nM; in the assay with Enterovirus 68, < 100 nM; in the assay with Enterovirus 71, < 100 nM; with coxsackie B1 virus it was < 10 nM; in the assay with coxsackie B2 virus, < 10 nM. The IC50 in the assay with coxsackie B3 virus, in the assay on coxsackie B 4 virus, in the assay with coxsackie B5virus and in the assay with polio virus Sabin 1 was < 10 nM each time.

On to `COc1ccc(CNc2nc(C)nc3c(-c4ccc(OC)c(OC)c4)c(C)nn23)cc1` [Example 10, 8-(3,4-dimethoxyphenyl)-N-[(4-methoxyphenyl)methyl]-2,7-dimethyl-pyrazolo[1,5-a][1,3,5]triazin-4-amine], for which the IC50 with Enterovirus 6 is < 1000 nM; in the assay on Enterovirus 30 it was < 100 nM; with Enterovirus 68, < 100 nM; with Enterovirus 71, < 1000 nM; in the assay on coxsackie B1 virus it was < 100 nM; with coxsackie B2 virus, < 100 nM. Also, the IC50 in the assay on coxsackie B3 virus is < 1000 nM; with coxsackie B 4 virus it was < 100 nM; in the assay with coxsackie B5virus, < 100 nM; in the assay on polio virus Sabin 1, < 100 nM.
